According to patent US10689459B2, “Treatment of breast cancer brain metastases” (THE GENERAL HOSPITAL CORPORATION, priority 2014, dated 2020):

Assays:
[1] = test system: human breast cancer cells growing in the brain parenchyma (BT474, MDA-MB-361, T-47D); experiment: Brain metastatic xenograft tumor growth (three cell lines, Example 1); format: in vivo, nude mice; settings: COMPOUND A 30 or 50 mg/kg once a day p.o.; FIG. 1B
Source text: (§1) 5-(2,6-di-morpholin-4-yl-pyrimidin-4-yl)-4-trifluoromethyl-pyridin-2-ylamine (referred to herein as “COMPOUND A”) is a potent and specific pan-Class I PI3K inhibitor with activity against breast cancer cells bearing HER2-amplification as well as oncogenic PI3K catalytic subunit alpha (PIK3CA) mutations. We compared the efficacy of COMPOUND A on identical human HER2-positive breast cancer cells growing in the MFP or in the brain parenchyma of nude mice. The three breast cancer cell lines examined included HER2-amplified BT474, HER2-amplified and PIK3CA mutant (E545K) MDA-MB-361, and PIK3CA mutant (H1047R) T-47D cell lines. […] Furthermore, the concentration of COMPOUND A in breast tumors growing at both sites, as well as in the plasma of these mice was identical.
(§2) BT474, MDA-MB-361, and T-47D cells were transduced with an expression cassette encoding Gluc and GFP separated by an internal ribosomal entry site, using a lentiviral vector. GFP-positive cells were sorted with a FACSAria cell sorter (BD Biosciences). […]
(§3) Tumor size was measured twice a week by measuring the activity of secreted Gluc in the blood. […] Blood was transferred to an opaque 96-well plate, and Gluc activity was measured using coelenterazine (CTZ; Nanolight) as a substrate and a plate luminometer (Centro XS LB960; Berthold Technologies). […]

[2] = Compound A concentration measurement in tumor and plasma (LC-MS/MS); format: in vivo, nude mice; settings: tumor lysate by LC-MS/MS; comparison between sites
Description: Tumor samples were collected, weighed and lysed in Lysing Matrix D tube (MP Biomedicals) in RIPA buffer (Cell Signaling Technologies (CST)) at fixed weight/volume ratio. The samples were centrifuged at 13,000 rpm and 4° C. in Micro centrifuge for 10 min. Supernatant was collected from the lysate and stored at −80° C. The COMPOUND A concentration in tumor lysate was analyzed by LC-MS/MS at Inventiv Health Clinical Lab, Inc. It was then normalized by tumor weight-lysis buffer ratio to yield COMPOUND A exposure (ng/mL) in tumor tissue.

BT474-Gluc-BR cells = experiment: In vitro sensitivity of cancer cells isolated from a brain metastatic tumor; format: cell-based, human; settings: BT474-Gluc-BR cultured for a week in vitro
Source text: We began our investigation into the resistance of breast cancer BM to PI3K inhibition by asking if breast cancer cells require constant influence from the brain microenvironment. We isolated breast cancer cells after dissociation of a brain metastatic tumor (termed BT474-Gluc-BR). After cultured for a week in vitro, the vast majority of viable cells were cancer cells, as identified by GFP. […] Instead, breast cancer cells must receive continuous support from the brain microenvironment in order to maintain resistance. […]
The xCELLigence system (Acea Biosciences Inc.) was used to assess the cell index of T-47D, BT474 and MDA-MB-361 cells. xCELLigence measures electrical impedance across micro-electrodes integrated at the bottom of tissue culture E-plates to provide quantitative information about the biological status of cells, including cell number, morphology and viability. […] Cells were monitored every 15 m for a period of up to 24 h via the incorporated sensor electrode arrays of the E-Plate 96. […] Electric impedance was measured in 1 h intervals after addition of drug until the end of the experiment. Cell index value, which is a dimensionless parameter derived as a relative change in measured electrical impedance to represent numbers of attached cells, was calculated from the electric impedance and plotted using the RTCA software provided by the vendor. […]

p-AKT = p-AKT inhibition in tumor tissue (BM versus MFP tumors); format: in vivo, nude mice; settings: tumor tissue collected two hours after the final dose
Source text: as §1

[3] = test system: HER2- or PI3K-driven breast tumors growing in the MFP (BT474, MDA-MB-361, T-47D); experiment: Mammary fat pad (MFP) xenograft tumor growth; format: in vivo, nude mice; settings: COMPOUND A 30 or 50 mg/kg once a day p.o.; FIG. 1A
Source text: as §1, §2, §3

[4] = test system: three HER2-positive breast cancer cell lines; experiment: Resistance analysis of secreted growth factors (CellTiter-Glo rescue); format: cell-based, human; settings: unbiased analysis of 220 growth factors; 96 h incubation
Source text: A collection of cDNA constructs representing secreted and single pass transmembrane proteins was identified (as described previously described^56) and purchased from Invitrogen Ultimate ORF collection. (The library is maintained by DMP BioArchive.) pCDNA-DEST40 (Invitrogen) was the plasmid vector for all clones, and all clone inserts were confirmed by full sequencing. For this study a collection of 338 cDNA constructs, representing 220 unique secreted and single pass transmembrane proteins, was used to identify rescued ligands in the present of each compound treatment—each cDNA construct was reverse-transfected using HEK293T/17. […] CellTiter-Glo assay was then used for conducting end-point read out. Following plate to plate normalization of the raw CTG reading for triplicates, the rescue % value for each secreted protein was calculated using the following formula: Rescue %=[Median (drug+supe)−Median (drug)]/[Median (DMSO)−Median (drug)]. The statistical probability score of the Rescue % value was also calculated: p-value=Chidist [Z(drug+supe)^2, 1], where Z(drug+supe)=[Median (drug+supe)−Median (drug)]/Std(drug+supe), where drug+supe stands for the individual sample that were treated with individual supernatant that was expected to contain one unique secreted protein. […]

Row | concentration in breast tumors growing at both sites (MFP, brain) and in plasma [2] | Molecule | tumor response to treatment, established brain metastatic lesions [1] | in vitro sensitivity of brain microenvironment-exposed cells versus parental cells (BT474-Gluc-BR cells) | level of p-AKT inhibition in BM compared with MFP tumors (p-AKT) | tumor response to treatment, tumors growing in the MFP [3] | induction of resistance to COMPOUND A [4]
1 | identical | Nc1cc(C(F)(F)F)c(-c2cc(N3CCOCC3)nc(N3CCOCC3)n2)cn1 [COMPOUND A, 5-(2,6-di-morpholin-4-yl-pyrimidin-4-yl)-4-trifluoromethyl-pyridin-2-ylamine] | resistant to treatment | similarly sensitive | comparable level of p-AKT inhibition | regression | 
2 |  | NRG-1: neuregulin 1, HER3 ligand; secreted growth factor (protein) TSHLVKCAEKEKTFCVNGGECFMVKDLSNPSRYLCKCPNEFTGDRCQNYVMASFYKHLGIEFMEAEELYQK |  |  |  |  | most potent inducers of resistance
